US12065428B2, “Anti-viral compounds” (Aligos Therapeutics, Inc., priority 2021, dated 2024)
Where two headings read alike, the source gives them in different places.

Columns and labels:
[1] = molecular target: T1, SARS-Cov-2 3CLpro (Severe acute respiratory syndrome coronavirus 2, UniProt P0DTD1); experiment: SARS-Cov-2 3CLpro and HRV3C duplex assay (SAMDI-MS): 3CLpro; format: biochemical; conditions: 3CLpro, duplex assay, 30 mins preincubation; class symbols; read-out: SARS-Cov-2 IC50
T1 construct: SARS-Cov-2 3CLpro and HRV3C Duplex Assay

[2] = molecular target: T2, HRV3C (Human rhinovirus 14, UniProt P03303); experiment: biochemical; conditions: read-out: HRV IC50
T2 construct: SARS-Cov-2 3CLpro and HRV3C Duplex Assay

[3] = Cytotoxicity plates without OC43 virus in HeLa cells; format: cell-based; conditions: human, HeLa cells (uninfected)
Protocol: The human beta-coronavirus OC43 was purchased from ATCC (Manassas, VA) and propagated using HCT-8 human colorectal epithelial cells (ATCC). HeLa human cervical epithelial cells (ATCC) were used as susceptible host cell lines and were cultured using EMEM media, supplemented with 10% fetal bovine serum (FBS), 1% (v/v) penicillin/streptomycin (P/S), 1% (v/v) HEPES and 1% (v/v) cellgro Glutagro™ supplement (all Corning, Manassas, VA) at 37° C. For the OC43 antiviral assay, 1.5×10^4 HeLa cells per well were plated in 100 μL complete media in white 96-well plates with clear bottoms at 37° C. for up to 24 h to facilitate attachment and allow cells to recover from seeding stresses. Next day, the cell culture medium was removed. Serially diluted compounds in 100 μL assay media (EMEM, 2% FBS, 1% P/S, 1% cellgro Glutagro™ supplement, 1% HEPES) were added to the cells and incubated for 4H at 37° C. in a humidified 5% CO2 incubator. 100 μL of OC43 virus stock was diluted to a concentration known to produce optimal cytopathic effect, inducing 80-90% reduction in cell viability. 96-well plates were incubated for 6 (HeLa) days at 33° C.; each plate contains uninfected control wells as well as virus-infected wells that were not treated with compound. Cytotoxicity plates without the addition of OC43 virus were carried out in parallel. At the end of the incubation period, 100 μL cell culture supernatant was replaced with 100 μL cell-titer-glo reagent (Promega, Madison, WI) and incubated for at least 10 min at rt prior to measuring luminescence. Luminescence was measured on a Perkin Elmer (Waltham, MA) Envision plate reader. Antiviral % inhibition was calculated as follows: [(Compound treated cells infected sample)−(no compound infected control)]/[(Uninfected control)−(no compound infected control)]*100; Using GraphPad (San Diego, CA) prism software version 8.3.1, the antiviral dose-response plot was generated as a sigmoidal fit, log(inhibitor) vs response-variable slope (four parameters) model and the EC50 was calculated which is the predicted compound concentration corresponding to a 50% inhibition of the viral cytopathic effect.

[4] = test system: SARS-CoV-2-GHB-03021/2020; experiment: microbe, parasite or virus in culture; format: cell-based; conditions: Severe acute respiratory syndrome coronavirus 2, Vero C1008, 96 h; read-out: VeroE6 + CP (EC50)
[5] = molecular target: T3, human cathepsin L (Homo sapiens, UniProt P07711); experiment: Cathepsin L assay (Z-FR-AMC fluorescence); format: biochemical; conditions: 10 pM human cathepsin L, 30 mins preincubation; class symbols
T3 construct: purchased R&D Systems
Protocol: For the cathepsin L assay, 10 pM of human cathepsin L (R&D Systems; Minneapolis, MN) was preincubated for 30 mins with test compounds. Reactions were initiated by the addition of a peptide substrate Z-FR-AMC (final concentration 2 μM, Anaspec; Fremont, CA). Fluorescence was measured at 2-minute intervals for 30 mins using a 355/460 excitation/emission filter module on an Envision plate reader (Perkin Elmer; Waltham, MA). The IC50 values were calculated for each assay by fitting the curves using a four-parameter equation in GraphPad Prism.

[6] = test system: human beta-coronavirus OC43; experiment: OC43 coronavirus assay in HeLa cells (cytopathic effect, cell-titer-glo); format: cell-based; conditions: Betacoronavirus 1, 144 h; OC43 in HeLa cells, 6 days at 33° C.; class symbols; read-out: EC50
[7] = HRV3C, duplex assay, 30 mins preincubation, class symbols

T2 sequence (P03303 1538-1719): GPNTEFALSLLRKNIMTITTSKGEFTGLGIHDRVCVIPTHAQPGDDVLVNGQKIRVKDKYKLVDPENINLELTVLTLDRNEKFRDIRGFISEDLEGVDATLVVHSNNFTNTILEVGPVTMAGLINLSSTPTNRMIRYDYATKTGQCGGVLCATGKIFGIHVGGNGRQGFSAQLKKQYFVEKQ
T3 sequence (P07711 114-333): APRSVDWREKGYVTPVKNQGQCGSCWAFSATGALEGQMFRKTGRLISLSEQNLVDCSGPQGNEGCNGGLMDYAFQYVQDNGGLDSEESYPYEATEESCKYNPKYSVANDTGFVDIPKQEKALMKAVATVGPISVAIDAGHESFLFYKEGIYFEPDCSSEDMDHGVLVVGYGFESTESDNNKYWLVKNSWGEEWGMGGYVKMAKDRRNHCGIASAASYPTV

Q: Which IC50 [1] does the source give for `CC(C)n1c(C(=O)N2CCC3(CC3)C[C@H]2C(=O)N[C@@H](C[C@@H]2CCNC2=O)C(=O)C(=O)NC2CC2)cc2ccccc21` [Compound 27] here?
A: The IC50 was < 20 nM.

Q: And the IC50 [2, 7]?
A: The IC50 was 200 to 2000 nM.

Q: And the CC50 at 6 days ([3]; class symbols)?
A: Its CC50 at 6 days is ≥ 100000 nM.

Q: What about the EC50 [4] of the same compound?
A: Its EC50 is < 1000 nM.

Q: And the IC50 [5]?
A: Its IC50 is ≥ 10000 nM.

Q: And the EC50 [6]?
A: The EC50 was 100 to 1000 nM.

Q: Which results are given for `O=C(NC1CC1)C(=O)[C@H](C[C@@H]1CCNC1=O)NC(=O)[C@@H]1CC2(CCN1C(=O)c1csc3ccccc13)CC2` [Compound 28]?
A: IC50 [1]: < 20 nM; IC50 [2, 7]: 20 to 200 nM; CC50 at 6 days ([3]; class symbols): ≥ 100000 nM; EC50 [4]: < 1000 nM; IC50 [5]: ≥ 10000 nM; EC50 [6]: 1000 to 10000 nM

Q: What does the source list for `COc1ccc2cc(C(=O)N3CCC4(CC4)C[C@H]3C(=O)N[C@@H](C[C@@H]3CCNC3=O)C(=O)C(=O)NC3CC3)n(C)c2c1` [Compound 29]?
A: IC50 [1]: < 20 nM; IC50 [2, 7]: 2000 to 20000 nM; CC50 at 6 days ([3]; class symbols): ≥ 100000 nM; EC50 [4]: < 1000 nM; IC50 [5]: ≥ 10000 nM; EC50 [6]: 100 to 1000 nM

Q: What does the source list for `Cc1ccc2cc(C(=O)N3CCC4(CC4)C[C@H]3C(=O)N[C@@H](C[C@@H]3CCNC3=O)C(=O)C(=O)NC3CC3)n(C)c2c1` [Compound 30]?
A: IC50 [1]: 20 to 200 nM; IC50 [2]: > 10000 nM; CC50 at 6 days ([3]; class symbols): ≥ 100000 nM; EC50 [4]: < 1000 nM; IC50 [5]: ≥ 10000 nM; EC50 [6]: 100 to 1000 nM

Q: What does the source list for `Cn1c(C(=O)N2CCC3(CC3)C[C@H]2C(=O)N[C@@H](C[C@@H]2CCNC2=O)C(=O)C(=O)NC2CC2)cc2ccc(Cl)cc21` [Compound 31]?
A: IC50 [1]: < 20 nM; IC50 [2, 7]: 2000 to 20000 nM; CC50 at 6 days ([3]; class symbols): ≥ 100000 nM; EC50 [4]: < 1000 nM; IC50 [5]: ≥ 10000 nM; EC50 [6]: 100 to 1000 nM

Q: What does the source list for `O=C(NC1CC1)C(=O)[C@H](C[C@@H]1CCNC1=O)NC(=O)[C@@H]1CC2(CCN1C(=O)[C@@H]1CCCc3ccccc31)CC2` [Compound 32]?
A: IC50 [1]: 20 to 200 nM; IC50 [2, 7]: 200 to 2000 nM; CC50 at 6 days ([3]; class symbols): ≥ 100000 nM; EC50 [4]: < 1000 nM; IC50 [5]: ≥ 10000 nM; EC50 [6]: 1000 to 10000 nM

Q: Which IC50 [1] does the source give for `O=C(NC1CC1)C(=O)[C@H](C[C@@H]1CCNC1=O)NC(=O)[C@@H]1CC2(CCN1C(=O)[C@H]1CCCc3ccccc31)CC2` [Compound 33] here?
A: Its IC50 is 20 to 200 nM.

Q: And the IC50 [2, 7]?
A: Its IC50 is 200 to 2000 nM.

Q: And the CC50 at 6 days ([3]; class symbols)?
A: Its CC50 at 6 days is ≥ 100000 nM.

Q: What about the EC50 [4] of the same compound?
A: The EC50 was < 1000 nM.

Q: And the IC50 [5]?
A: Its IC50 is ≥ 10000 nM.

Q: What about the EC50 [6] of the same compound?
A: Its EC50 is 1000 to 10000 nM.

Q: With `CC(C)(C)[C@H](NC(=O)C(F)(F)F)C(=O)N1CCC2(CC2)C[C@H]1C(=O)N[C@H](C#N)C[C@@H]1CCNC1=O` [Compound 35, (S)—N—((S)-1-cyano-2-((S)-2-oxopyrrolidin-3-yl)ethyl)-6-((S)-3,3-dimethyl-2-(2,2,2-trifluoroacetamido)butanoyl)-6-azaspiro[2.5]octane-5-carboxamide] as the compound, how does the IC50 [1] read?
A: Its IC50 is < 20 nM.

Q: What about the IC50 [2] of the same compound?
A: The IC50 was > 10000 nM.

Q: What about the CC50 at 6 days ([3]; class symbols) of the same compound?
A: The CC50 at 6 days was ≥ 100000 nM.

Q: And the EC50 [4]?
A: The EC50 was < 1000 nM.

Q: And the IC50 [5]?
A: Its IC50 is ≥ 10000 nM.

Q: What about the EC50 [6] of the same compound?
A: The EC50 was 100 to 1000 nM.

Q: Which IC50 [1] does the source give for `COc1cccc(-c2csc(C(=O)N3CCC4(CC4)C[C@H]3C(=O)N[C@@H](C[C@@H]3CCNC3=O)C(=O)C(=O)NC3CC3)n2)c1` [Compound 36] here?
A: The IC50 was 200 to 2000 nM.

Q: What about the IC50 [2, 7] of the same compound?
A: The IC50 was 2000 to 20000 nM.

Q: And the CC50 at 6 days ([3]; numeric bound, unit inferred)?
A: The CC50 at 6 days was > 100000 nM.

Q: And the EC50 [4]?
A: Its EC50 is 1000 to 10000 nM.

Q: What about the IC50 [5] of the same compound?
A: The IC50 was ≥ 10000 nM.

Q: And the EC50 [6]?
A: The EC50 was 100 to 1000 nM.

Q: With `COc1ccc(-c2csc(C(=O)N3CCC4(CC4)C[C@H]3C(=O)N[C@@H](C[C@@H]3CCNC3=O)C(=O)C(=O)NC3CC3)n2)cc1` [Compound 37] as the compound, how does the IC50 [1] read?
A: The IC50 was 200 to 2000 nM.

Q: And the IC50 [2, 7]?
A: The IC50 was 200 to 2000 nM.

Q: What about the CC50 at 6 days ([3]; numeric bound, unit inferred) of the same compound?
A: The CC50 at 6 days was > 100000 nM.

Q: What about the EC50 [4] of the same compound?
A: The EC50 was 1000 to 10000 nM.

Q: And the IC50 [5]?
A: The IC50 was ≥ 10000 nM.

Q: And the EC50 [6]?
A: The EC50 was 100 to 1000 nM.

Q: What does the source list for `Cc1sc(C(=O)N2CCC3(CC3)C[C@H]2C(=O)N[C@@H](C[C@@H]2CCNC2=O)C(=O)C(=O)NC2CC2)nc1-c1ccccc1` [Compound 38]?
A: IC50 [1]: 200 to 2000 nM; IC50 [2, 7]: 2000 to 20000 nM; CC50 at 6 days ([3]; numeric bound, unit inferred): > 100000 nM; EC50 [4]: 1000 to 10000 nM; IC50 [5]: ≥ 10000 nM; EC50 [6]: 100 to 1000 nM

Q: For `CC(C)(C)c1csc(C(=O)N2CCC3(CC3)C[C@H]2C(=O)N[C@@H](C[C@@H]2CCNC2=O)C(=O)C(=O)NC2CC2)n1` [Compound 39], which IC50 [1] is on record?
A: Its IC50 is 200 to 2000 nM.

Q: And the IC50 [2, 7]?
A: Its IC50 is 2000 to 20000 nM.

Q: And the CC50 at 6 days ([3]; numeric bound, unit inferred)?
A: The CC50 at 6 days was > 100000 nM.

Q: And the EC50 [4]?
A: Its EC50 is 1000 to 10000 nM.

Q: And the IC50 [5]?
A: The IC50 was 1000 to 10000 nM.

Q: And the EC50 [6]?
A: Its EC50 is 100 to 1000 nM.
